From patent publication US9435795B2, “Enhanced deposition of chromogens utilizing pyrimidine analogs” (Ventana Medical Systems, Inc., priority 2010, dated 2016)

Key:
[1] = target: T1, horseradish peroxidase (HRP) (Armoracia rusticana, UniProt P00433); assay: Plate assay: kinetic screening of enhancers of HRP-mediated DAB oxidation (ultraView Detection Kit, OD 455 nm); type: biochemical; details: for Percent increase of apparent Vmax of HRP: relative to uView Vmax without enhancement
T1 construct: purchased VMSI (Ventana Medical Systems, Inc.) 760-500: 253-4290, 253-4292 and 253-4293
Method: The additives were directly added to a well containing the necessary reagents from the ultraView™ Detection Kit (VMSI 760-500: 253-4290, 253-4292 and 253-4293) in 1× Reaction Buffer (VMSI 950-300) and 0.1% fish gelatin. Fish gelatin was used to help disperse the oxidized DAB and inhibit its precipitation from solution. The ultraView™ Detection Kit was diluted to measure the formation of oxidized DAB by UV-VIS at 455 nm. Additives were tested at set concentrations to determine enhancement in the DAB oxidation reaction. The data were graphed, and the apparent maximum velocity (Vmax) was calculated at each additive concentration level.

[2] = target: T2, ultraView HRP multimer (Armoracia rusticana, UniProt P00433); assay: Michaelis-Menten kinetics of HRP-oxidized DAB with enhanced DAB chromogen mixtures; type: biochemical, horseradish
T2 construct: purchased Ventana Medical Systems (ultraView kit component)
T2 sequence (P00433 31-338 limits assumed): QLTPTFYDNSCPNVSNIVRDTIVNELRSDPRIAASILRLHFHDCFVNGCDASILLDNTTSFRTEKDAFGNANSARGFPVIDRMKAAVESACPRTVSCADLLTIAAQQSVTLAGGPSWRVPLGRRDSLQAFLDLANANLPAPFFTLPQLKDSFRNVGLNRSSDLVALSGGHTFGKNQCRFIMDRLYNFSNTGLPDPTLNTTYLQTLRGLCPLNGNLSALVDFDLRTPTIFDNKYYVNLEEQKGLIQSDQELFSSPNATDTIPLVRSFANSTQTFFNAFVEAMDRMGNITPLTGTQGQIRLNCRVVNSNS
Method: To further study the synergistic effect in the increased apparent Vmax for HRP-oxidized DAB, Michaelis-Menten kinetics were calculated for the best enhanced DAB chromogen mixtures in Table 3. […] The definition of Vmax=kcat·[E]total when the enzyme substrate concentration was at saturation levels. When the concentration of enzyme was kept constant, the apparent Vmax is proportional to kcat (the apparent turnover for HRP or the first order rate constant).

[3] = Solubility of additive in reaction buffer / aqueous buffers; type: physicochemical
[4] = system: bcl2 in tonsil tissue; assay: TSA-IHC tissue staining of bcl2 in tonsil tissue (TA-HQ deposition)
Method: Enhanced DAB deposition was evaluated on a TSA-IHC tissue staining of bcl2 in tonsil tissue. […] Tyramide deposition was performed with and without 10 mM 2-hydroxypyrimidine. […] The percent of cells stained with DAB increased in areas with low bcl2 antigen expression. Formalin fixed paraffin embedded tonsil tissue was mounted on Superfrost slides, deparaffinized and antigen retrieved using CC1 bulk reagent (Ventana® p/n 950-124). […] Slides were counterstained using Hematoxylin II (Ventana® p/n 790-2208) and Bluing Reagent (Ventana® p/n760-2037). The slides were dehydrated using gradient alcohols, cover slipped and viewed using a bright field microscope (FIGS. 23-26).

[5] = system: bcl2 on tonsil tissue; assay: IHC staining of bcl2 on tonsil tissue with enhanced DAB chromogen solutions, pathology scoring; details: additive in DAB chromogen solution
Method: IHC staining was performed for bcl2 on tonsil tissue using enhanced DAB chromogen solutions to further examine enhancer synergistic effects on DAB deposition. Reader 1 performed all pathology evaluations during the same period of time.
Formalin fixed paraffin embedded tonsil tissue was mounted on Superfrost slides, deparaffinized and antigen retrieved using CC1 bulk reagent (Ventana® p/n 950-124). Following retrieval, one drop (100 μL) of UV Inhibitor (a component of the ultraView™ DAB kit) was dispensed onto a slide and incubated for 8 minutes. Following the incubation of the Inhibitor, 1 drop of the mouse anti-bcl2 (clone 124; Ventana® p/n 790-4464) was dispensed onto the slide and incubated for 16 minutes. Following 2 rinses with reaction buffer, the bcl2 antibody was detected using 1 drop of the ultraView™ universal HRP conjugate (a component of the ultraView™ DAB kit) and incubated on the slide for 8 minutes. One drop of DAB (5.5 mM DAB; 0.05% Brij® 35; plus any combination of enhancers investigated in table 3) and H2O2 were each added to the slides and incubated for 8 minutes. ultraView™ DAB was used as the reference. After rinsing the slides in reaction buffer, 100 μL of copper (component of ultraView™ DAB kit) was applied to slide for 4 minutes. Slides were counterstained using Hematoxylin II (Ventana® p/n 790-2208) and Bluing Reagent (Ventana p/n760-2037). […]

[6] = target: T1, horseradish peroxidase (HRP); assay: Plate assay: enhancers added sequentially to ultraView Detection Kit (synergistic/antagonistic effects); type: biochemical; details: for Effect on apparent velocity of HRP when added to a preceding assay mixture of Table 2: NMO added to mixture 4, 50 mM L-histidine or 10 mM pyrimidine added to mixture 5
Method: The same concentration of reagents from the ultraView™ Detection Kit (VMSI 760-500: 253-4290, 253-4292 and 253-4293) were used in 1× Reaction Buffer™ containing 0.1% fish gelatin for each trial. In each trial, the enhancers were added together one at a time.

[7] = Compatibility and stability of reformulated DAB Chromogen solution with additive; type: physicochemical; details: for Precipitation of DAB from reformulated DAB Chromogen solution: higher concentrations of imidazole, 50 mM L-histidine
[8] = system: HER-2 positive CaLu3 carcinoma cell lines; assay: ISH tissue staining with HER2 DNA probe on HER-2 3-in-1 mouse xenografts; details: 10 mM in DAB Chromogen solution; CaLu3 carcinoma cells
Method: ISH tissue staining was examined using enhanced DAB solutions. HER-2 3-in-1 mouse xenografts of HER-2 positive carcinoma cell lines CaLu3, ZR-75-1 and MCF7 were treated with HER2 DNA probe (VMSI 480-4495) and stained with the ultraView™ DAB Chromogen solution or an enhanced DAB Chromogen solution containing 10 mM L-histidine (see FIGS. 21-22). […] The increased DAB deposition was marginal for the strongest ISH signals, but signal intensity for the weaker DAB signals was raised throughout the tissue. The same observation was made with enhanced DAB deposition in IHC.

[9] = enhancer 10 mM, no enhancer 18.50
[10] = enhancer 50 mM, no enhancer 18.50, (sat) = reaction rate saturated by start of UV-VIS analysis
[11] = enhancer 100 mM, no enhancer 18.50, (sat) = reaction rate saturated by start of UV-VIS analysis
[12] = enhancer 10 mM in 50 mM imidazole, 10 mM calcium chloride, 10 mM boric acid
[13] = 10 mM buffer salt with 10 mM pyrimidine, no enhancer 228
[14] = 50 mM buffer salt with 10 mM 2-hydroxypyrimidine (FIG. 19: also 10 mM boric acid, 10 mM calcium chloride)

Oc1ccccn1 [2-Hydroxypyridine]
Vmax (apparent, HRP-oxidized DAB) [1, 9]: 47.67 mOD/min
Percent increase of apparent Vmax of HRP ([1]; enhancer 10 mM): 157%
Vmax (apparent, HRP-oxidized DAB) [1, 10]: 18.19 mOD/min
Vmax (apparent, HRP-oxidized DAB) [1, 11]: 15.98 mOD/min
Vmax [2, 12]: 383 mOD/min

Oc1ncccn1 [2-Hydroxypyrimidine]
Vmax (apparent, HRP-oxidized DAB) [1, 9]: 144.00 mOD/min
Vmax (apparent, HRP-oxidized DAB) [1, 10]: 156.00 mOD/min
Vmax (apparent, HRP-oxidized DAB) [1, 11]: 148.00 mOD/min
Solubility in aqueous buffers (in words) [3]: do not have solubility or volatility problems
Vmax [2, 12]: 320 mOD/min
Tyramide deposition in TSA-IHC staining (in words) ([4]; 10 mM during tyramide deposition, 8 minute primary Ab incubation): increased the tyramide deposition

c1c[nH]cn1 [Imidazole]
DAB staining on tissue, pathological review (in words) [5]: significantly increased the DAB staining intensity
Vmax (apparent, HRP-oxidized DAB) [1, 9]: 28.80 mOD/min
Percent increase of apparent Vmax of HRP ([1]; enhancer 10 mM): 56%
Vmax (apparent, HRP-oxidized DAB), enhancers added sequentially ([6]; no enhancement 18.50): 34.00 mOD/min
Vmax [2, 13]: 330 mOD/min
Vmax [2, 14]: 320 mOD/min
Precipitation of DAB from reformulated DAB Chromogen solution [7]: causing DAB to precipitate

N[C@@H](Cc1c[nH]cn1)C(=O)O [L-Histidine]
Vmax (apparent, HRP-oxidized DAB) [1, 9]: 21.84 mOD/min
Percent increase of apparent Vmax of HRP ([1]; enhancer 10 mM): 18%
Vmax (apparent, HRP-oxidized DAB) [1, 10]: 44.00 mOD/min
Percent increase of apparent Vmax of HRP ([1]; enhancer 50 mM): 138%
Vmax (apparent, HRP-oxidized DAB) [1, 11]: 72.00 mOD/min
Effect on apparent velocity of HRP when added to a preceding assay mixture of Table 2 [6]: increased the apparent velocity of HRP
Vmax [2, 13]: 300 mOD/min
Vmax [2, 14]: 317 mOD/min
DAB deposition in ISH staining (in words) [8]: increased the deposition of DAB
Precipitation of DAB from reformulated DAB Chromogen solution [7]: caused the precipitation of DAB
DAB deposition in TSA-IHC staining (in words) ([4]; 10 mM in DAB Chromogen solution, 16 minute primary Ab incubation): increased the DAB deposition on tissue

C[N+]1([O-])CCOCC1 [NMO, 4-methyl-morpholine N-oxide]
Vmax (apparent, HRP-oxidized DAB) ([1]; enhancer 0.13% (10.7 mM)): 33.60 mOD/min
Vmax (apparent, HRP-oxidized DAB) ([1]; enhancer 0.25% (21.3 mM)): 43.60 mOD/min
Vmax (apparent, HRP-oxidized DAB) ([1]; enhancer 0.50% (42.7 mM)): 51.60 mOD/min
Effect on apparent velocity of HRP when added to a preceding assay mixture of Table 2 [6]: antagonistic effect

[O-][n+]1cccnc1 [Pyrimidine-N-oxide]
DAB staining on tissue, pathological review (in words) [5]: best DAB signal to background noise ratio for the two enhancers
Vmax (apparent, HRP-oxidized DAB) [1, 9]: 104.00 mOD/min
Vmax (apparent, HRP-oxidized DAB) [1, 10]: 104.00 mOD/min
Vmax (apparent, HRP-oxidized DAB) [1, 11]: 36.00 mOD/min
Solubility in aqueous buffers (in words) [3]: do not have solubility or volatility problems
Vmax [2, 12]: 374 mOD/min
Functionality over time of DAB reformulated with additive [7]: lost functionality and stopped staining with time

c1cncnc1 [Pyrimidine]
Vmax (apparent, HRP-oxidized DAB) [1, 9]: 104.00 mOD/min
Percent increase of apparent Vmax of HRP ([1]; enhancer 10 mM): 462%
Vmax (apparent, HRP-oxidized DAB) [1, 10]: 124.00 mOD/min
Percent increase of apparent Vmax of HRP ([1]; enhancer 50 mM): 570%
Vmax (apparent, HRP-oxidized DAB) [1, 11]: 36.80 (sat) mOD/min
Effect on apparent velocity of HRP when added to a preceding assay mixture of Table 2 [6]: increased the apparent velocity of HRP
Vmax ([2]; enhancer 50 mM in 50 mM imidazole, 10 mM calcium chloride, 10 mM boric acid): 326 mOD/min
